Experimental data: patent US11813275B2, “Pharmaceutical composition, methods for treating and uses thereof” (Boehringer Ingelheim International GmbH, priority 2013, dated 2023)
“Also recorded” adds a separate entry of the source.

Tests used:
[1] = system: STZ-induced diabetes mellitus (Type I) in rat; assay: Blood glucose and weight gain in STZ-induced type I diabetic rats; assay type: in vivo, Wistar rats; conditions: 10 and 30 mg/kg/d p.o. in drinking water for 7 weeks
Description: (§1) Type I diabetes in Wistar rats (8 weeks old, 250-300 g) are induced by a single i.v. injection of STZ (60 mg/kg). The blood glucose level is measured 3 days after STZ injection (to test whether diabetes was induced) and on the day of sacrifice. One week after injection empagliflozin (SGLT2-i) was administered with drinking water for additional 7 weeks (10 and 30 mg/kg/d p.o.).

[2] = system: isolated aortic rings; assay: Isometric tension recordings of isolated aortic rings (vasorelaxation); assay type: in vivo, Wistar rats
Description: as §1
FIG. 2: A: Endothelial dependant vasorelaxation. […] B: Endothelial independent vasorelaxation obtain with glyceryl trinitrate (GTN) a NO donor.

[3] = system: leukocyte-derived reactive oxygen species (ROS) in blood; assay: PDBu/zymosan A-stimulated chemiluminescence, oxidative burst in blood; assay type: in vivo, Wistar rats; conditions: PDBu or zymosan A stimulation; STZ diabetic rats, 7 weeks, low (10 mg/kg) or high (30 mg/kg) dose
Description: as §1
FIGS. 3-9: Quantification of reactive oxygen species of (ROS) from leukocyte upon stimulation with zymosan A (ZymA). After 7 weeks of treatment, ROS production in blood is reduced either with the low or high dose of empagliflozin to level close to none diabetic animal.

[4] = system: superoxide formation in aortic vessels; assay: DHE staining of aortic cryosections (vascular superoxide formation); assay type: in vivo, Wistar rats; conditions: STZ diabetic rats, 7 weeks of treatment
Description: as §1

[5] = system: NADPH oxidase; assay: NADPH oxidase activity in cardiac tissue; assay type: in vivo, Wistar rats; conditions: STZ diabetic rats, 7 weeks of treatment
Description: as §1

[6] = system: ALDH-2; assay: Liver ALDH-2 activity; assay type: in vivo, Wistar rats; conditions: STZ diabetic rats, 7 weeks of treatment
Description: as §1

[7] = Serum levels of insulin and interferon-gamma in STZ diabetic rats; assay type: in vivo, Wistar rats; conditions: 7 weeks of treatment
Description: as §1

[8] = system: aortic wall; assay: Aortic wall thickness and collagen content by sirius red staining; assay type: in vivo, Wistar rats; conditions: STZ diabetic rats
Description: Aortic wall thickness and collagen content were also measured microscopically after sirius red staining. Aortic segments were fixed in parafomaldehyde (4%) and paraffin-embedded. Sirius red staining for vascular fibrosis was performed with paraffin-embedded samples of aortic tissue upon de-paraffination. Afterwards the nuclei were prestained with hemalum. Then samples were stained for 1 hour in 0.1% with Sirius red solution containing saturated picric acid (1.2%). Finally, tissue samples were dehydrated with 70%, 96% and 100% isopropanol and coverslipped with a solution of polymers in xylene. 60-70 measurements were made per sample, n=6-7 animals/groups.
FIGS. 16A and 16B: Microscopic determination of aortic wall thickness and collagen content by sirius red staining of aortic paraffinated sections. Quantification (FIG. 16A) and representative microscope images (FIG. 16B).

[9] = system: patients with T1D; assay: Blood pressure, arterial stiffness, HRV and adrenergic mediators in normotensive T1D patients under clamped euglycemia and hyperglycemia; assay type: in vivo, human
Description: Blood pressure, arterial stiffness, heart rate variability (HRV) and circulating adrenergic mediators were measured during clamped euglycemia and hyperglycemia in 40 normotensive patients with T1D. Studies were repeated after 8 weeks of empagliflozin (25 mg daily).
Augmentation index (Alx) for the radial and carotid arteries as well as a derived aortic Alx and carotid, radial and femoral pulse wave velocities (PWV) are measured for assessment of arterial stiffness using a SphygmoCor® System (AtCor Medical Inc., Itasca, Ill.).

endothelial independent vasorelaxation with GTN: effect on smooth muscle cells ([2]; isolated aortic rings after 7 weeks of treatment, glyceryl trinitrate as NO donor): absence of deleterious effect
Compound: OC[C@H]1O[C@@H](c2ccc(Cl)c(Cc3ccc(O[C@H]4CCOC4)cc3)c2)[C@H](O)[C@@H](O)[C@@H]1O [empagliflozin, 1-chloro-4-(β-D-glucopyranos-1-yl)-2-[4-((S)-tetrahydrofuran-3-yloxy)-benzyl]-benzene]
blood glucose levels [1]: distinct reduction | endothelial function (endothelial dependent vasorelaxation) ([2]; isolated aortic rings of STZ diabetic rats after 7 weeks of treatment): normalization of endothelial function; also recorded: improvement of endothelial function | oxidative stress in blood / ROS production from leukocytes [3]: reduced oxidative stress | oxidative stress / superoxide formation in aortic vessels [4]: reduced oxidative stress | NADPH oxidase activity in the cardiac tissue [5]: diminished | ALDH-2 activity (liver) [6]: partly restored | insulin level ([7]; STZ diabetic rats): restore insulin level | interferon γ (marker of inflammation) ([7]; elevation in STZ diabetic rats): highly diminished or suppressed | aortic collagen content [8]: normalized | aortic wall thickness [8]: normalized | carotid-radial pulse wave velocity ([9]; both glycemic conditions, 8 weeks of 25 mg daily, p≤0.0001): decreased significantly | systolic blood pressure ([9]; clamped euglycemia, after 8 weeks of 25 mg daily, before treatment 111±9, p=0.0187): 109±9 mmHg | augmentation index, aortic (derived) ([9]; clamped euglycemia, after 8 weeks of 25 mg daily, before treatment +0.1±13.4, p<0.0001): −6.2±14.3% | augmentation index, carotid ([9]; clamped euglycemia, after 8 weeks of 25 mg daily, before treatment +1.3±17.0, p<0.0001): −5.7±17.0% | augmentation index, radial ([9]; clamped euglycemia, after 8 weeks of 25 mg daily, before treatment −52±16, p<0.0001): −57±17% | blood pressure effects ([9]; clamped hyperglycemia, 8 weeks of 25 mg daily): not significant | carotid-femoral pulse wave velocity ([9]; clamped hyperglycemia, after 8 weeks of 25 mg daily, before treatment 5.7±1.1, p=0.0017): 5.2±0.9 m/s | arterial stiffness (overall conclusion) ([9]; patients with uncomplicated T1D, 8 weeks of 25 mg daily): reduces arterial stiffness
